Reference: PubChem BioAssay (NCI)
Values joined by “and” are separate entries in the source; they are usually repeats but may differ in a detail not shown here. Identical values can stand only once.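 Each compound was tested at five concentrations against cells in 96-well plates for 48 hours. GI50 is the concentration that inhibits growth by half. At the TGI there is no net growth.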

Key:
Assay in all cases: inhibition of tumour cell growth, NCI panel, 48 h
[1] = system: HCT-15 colon
[2] = system: SK-OV-3 ovarian
[3] = system: NCI/ADR-RES ovarian
[4] = system: RPMI-8226 leukemia
[5] = system: ACHN renal
[6] = system: NCI-H23 lung
[7] = system: HCC-2998 colon
[8] = system: IGROV1 ovarian
[9] = system: EKVX NSCLC
[10] = system: HOP-92 NSCLC
[11] = system: PC-3 prostate
[12] = system: LOX IMVI melanoma
[13] = system: MALME-3M melanoma
[14] = system: SN12C renal
[15] = system: HOP-62 NSCLC
[16] = system: K-562 leukemia
[17] = system: A549 NSCLC
[18] = system: SNB-75 CNS
[19] = system: NCI-H226 lung
[20] = system: SF-268 CNS
[21] = system: OVCAR-8 ovarian
[22] = system: SR leukemia
[23] = system: MOLT-4 leukemia
[24] = system: SF-539 CNS
[25] = system: A498 renal
[26] = system: MDA-MB-231 breast
[27] = system: T-47D breast
[28] = system: SK-MEL-2 melanoma
[29] = system: MCF7 breast
[30] = system: HCT-116 colon
[31] = system: OVCAR-3 ovarian
[32] = system: KM12 colon
[33] = system: SK-MEL-28 melanoma
[34] = system: RXF 393 renal
[35] = system: M14 melanoma
[36] = system: SNB-19 CNS
[37] = system: SW-620 colon
[38] = system: CAKI-1 renal
[39] = system: HL-60(TB) leukemia
[40] = system: SF-295 CNS
[41] = system: OVCAR-4 ovarian
[42] = system: U251 CNS
[43] = system: MDA-N
[44] = system: 786-0 renal
[45] = system: MDA-MB-435
[46] = system: UO-31 renal
[47] = system: DU-145 prostate
[48] = system: HS 578T breast
[49] = system: CCRF-CEM leukemia
[50] = system: UACC-257 melanoma
[51] = system: OVCAR-5 ovarian
[52] = system: NCI-H460 lung
[53] = system: UACC-62 melanoma
[54] = system: HT29 colon
[55] = system: SK-MEL-5 melanoma
[56] = system: TK-10 renal
[57] = system: BT-549 breast
[58] = system: COLO 205 colon
[59] = system: NCI-H522 lung

How did the GI50 [1] turn out when `CSc1ccc2c(c1)C(N1CCN(C)CC1)Cc1ccccc1S2` (configuration not stated) was run?
The GI50 was 2.83 µM.

And the TGI [1]?
Its TGI is 16.4 µM and 7.41 µM.

And the GI50 [2]?
The GI50 was 2.01 µM.

What about the TGI [2] of the same compound?
The TGI was 27.3 µM and 4.25 µM.

What about the GI50 [3] of the same compound?
Its GI50 is 1.96 µM.

And the TGI [3]?
Its TGI is 19 µM and 4.58 µM.

What about the TGI [4] of the same compound?
Its TGI is 4.12 µM and 4.58 µM.

What about the GI50 [5] of the same compound?
The GI50 was 1.96 µM.

What about the TGI [5] of the same compound?
Its TGI is 12.2 µM and 3.95 µM.

And the GI50 [6]?
Its GI50 is 3.22 µM.

And the TGI [6]?
Its TGI is 28.8 µM and 11.8 µM.

What about the GI50 [7] of the same compound?
The GI50 was 1.65 µM.

What about the TGI [7] of the same compound?
Its TGI is 25.9 µM and 3.08 µM.

And the TGI [8]?
The TGI was 7.3 µM and 4.91 µM.

What about the GI50 [9] of the same compound?
Its GI50 is 2.08 µM.

What about the TGI [9] of the same compound?
The TGI was 8.64 µM and 7.13 µM.

And the GI50 [10]?
Its GI50 is 0.393 µM.

What about the TGI [10] of the same compound?
The TGI was 7.77 µM and 2.62 µM.

What about the GI50 [11] of the same compound?
The GI50 was 1.89 µM.

And the TGI [11]?
Its TGI is 17.6 µM and 6.51 µM.

What about the GI50 [12] of the same compound?
The GI50 was 1.63 µM.

What about the TGI [12] of the same compound?
The TGI was 4.05 µM and 3.05 µM.

And the TGI [13]?
Its TGI is 4.28 µM and 3.41 µM.

What about the GI50 [14] of the same compound?
The GI50 was 2.81 µM.

And the TGI [14]?
Its TGI is 18.9 µM and 10.8 µM.

And the GI50 [15]?
The GI50 was 1.8 µM.

What about the TGI [15] of the same compound?
Its TGI is 23.6 µM and 3.29 µM.

And the TGI [16]?
Its TGI is 4.5 µM.

And the GI50 [17]?
The GI50 was 2.17 µM.

And the TGI [17]?
Its TGI is 24.2 µM and 5.72 µM.

What about the GI50 [18] of the same compound?
The GI50 was 1.49 µM.

What about the TGI [18] of the same compound?
Its TGI is 3.15 µM and 3.87 µM.

And the GI50 [19]?
The GI50 was 1.8 µM.

And the TGI [19]?
The TGI was 24.9 µM and 3.94 µM.

What about the GI50 [20] of the same compound?
Its GI50 is 2.1 µM.

What about the TGI [20] of the same compound?
Its TGI is 14.7 µM and 5.55 µM.

And the GI50 [21]?
Its GI50 is 2.07 µM.

What about the TGI [21] of the same compound?
Its TGI is 22.8 µM and 5.35 µM.

What about the GI50 [22] of the same compound?
Its GI50 is 1.66 µM.

What about the TGI [22] of the same compound?
Its TGI is 5.21 µM and 3.83 µM.

What about the GI50 [23] of the same compound?
The GI50 was 1.89 µM.

What about the TGI [23] of the same compound?
The TGI was 8.67 µM and 3.87 µM.

What about the GI50 [24] of the same compound?
Its GI50 is 1.87 µM.

And the TGI [24]?
Its TGI is 18.9 µM and 3.61 µM.

And the GI50 [25]?
Its GI50 is 1.37 µM.

And the TGI [25]?
The TGI was 25.8 µM and 2.8 µM.

What about the GI50 [26] of the same compound?
The GI50 was 1.85 µM.

What about the TGI [26] of the same compound?
The TGI was 13.7 µM and 3.65 µM.

What about the GI50 [27] of the same compound?
The GI50 was 2.19 µM.

What about the TGI [27] of the same compound?
The TGI was 42.5 µM and 5.17 µM.

And the GI50 [28]?
Its GI50 is 1.95 µM.

And the TGI [28]?
Its TGI is 7.82 µM and 3.8 µM.

And the GI50 [29]?
Its GI50 is 1.79 µM.

What about the TGI [29] of the same compound?
Its TGI is 7.22 µM and 3.58 µM.

What about the GI50 [30] of the same compound?
The GI50 was 1.98 µM.

And the TGI [30]?
The TGI was 16 µM and 4.03 µM.

What about the GI50 [31] of the same compound?
The GI50 was 2.67 µM.

And the TGI [31]?
The TGI was 28 µM and 7.22 µM.

And the GI50 [32]?
Its GI50 is 1.83 µM.

And the TGI [32]?
Its TGI is 7.49 µM and 3.55 µM.

What about the GI50 [33] of the same compound?
Its GI50 is 1.64 µM.

And the TGI [33]?
Its TGI is 3.06 µM.

What about the GI50 [34] of the same compound?
Its GI50 is 1.54 µM.

What about the TGI [34] of the same compound?
The TGI was 14 µM and 3.39 µM.

What about the TGI [35] of the same compound?
Its TGI is 3.77 µM and 3.53 µM.

And the GI50 [36]?
The GI50 was 2.36 µM.

And the TGI [36]?
Its TGI is 28.5 µM and 6.13 µM.

What about the GI50 [37] of the same compound?
The GI50 was 1.69 µM.

What about the TGI [37] of the same compound?
The TGI was 20.6 µM and 3.42 µM.

What about the GI50 [38] of the same compound?
The GI50 was 1.62 µM.

What about the TGI [38] of the same compound?
Its TGI is 13.3 µM and 3.33 µM.

And the GI50 [39]?
Its GI50 is 1.94 µM.

What about the TGI [39] of the same compound?
The TGI was 10.7 µM and 3.81 µM.

And the GI50 [40]?
The GI50 was 1.84 µM.

What about the TGI [40] of the same compound?
The TGI was 15.2 µM and 3.7 µM.

And the GI50 [41]?
Its GI50 is 2.6 µM.

And the TGI [41]?
The TGI was 9.66 µM and 9.89 µM.

And the GI50 [42]?
The GI50 was 1.53 µM.

And the TGI [42]?
Its TGI is 18.6 µM and 2.95 µM.

What about the TGI [43] of the same compound?
The TGI was 12.1 µM.

And the GI50 [44]?
The GI50 was 1.77 µM.

And the TGI [44]?
Its TGI is 19.8 µM and 3.36 µM.

And the GI50 [45]?
Its GI50 is 1.78 µM.

And the TGI [45]?
The TGI was 6.47 µM and 3.46 µM.

What about the GI50 [46] of the same compound?
The GI50 was 1.8 µM.

What about the TGI [46] of the same compound?
The TGI was 13.8 µM and 5.44 µM.

And the GI50 [47]?
The GI50 was 2.04 µM.

And the TGI [47]?
The TGI was 31.4 µM and 4.38 µM.

And the GI50 [48]?
The GI50 was 2.51 µM.

And the TGI [48]?
Its TGI is 15.9 µM and 10.9 µM.

What about the GI50 [49] of the same compound?
Its GI50 is 1.7 µM.

And the TGI [49]?
Its TGI is 0.845 µM and 3.84 µM.

What about the GI50 [50] of the same compound?
The GI50 was 1.54 µM.

What about the TGI [50] of the same compound?
The TGI was 5.43 µM and 3.03 µM.

What about the GI50 [51] of the same compound?
The GI50 was 1.95 µM.

What about the TGI [51] of the same compound?
The TGI was 7.25 µM and 3.67 µM.

And the GI50 [52]?
The GI50 was 1.74 µM.

What about the TGI [52] of the same compound?
The TGI was 7.12 µM and 3.45 µM.

What about the GI50 [53] of the same compound?
Its GI50 is 1.8 µM.

And the TGI [53]?
The TGI was 4.2 µM and 3.3 µM.

What about the GI50 [54] of the same compound?
The GI50 was 1.8 µM.

What about the TGI [54] of the same compound?
The TGI was 6.84 µM and 3.65 µM.

And the GI50 [55]?
The GI50 was 1.56 µM.

What about the TGI [55] of the same compound?
The TGI was 3.53 µM and 2.9 µM.

And the GI50 [56]?
Its GI50 is 1.84 µM.

What about the TGI [56] of the same compound?
Its TGI is 12.8 µM and 3.41 µM.

And the GI50 [57]?
Its GI50 is 2.84 µM.

What about the TGI [57] of the same compound?
The TGI was 17.6 µM and 9.3 µM.

What about the GI50 [58] of the same compound?
Its GI50 is 1.76 µM.

What about the TGI [58] of the same compound?
The TGI was 3.74 µM and 3.29 µM.

What about the GI50 [59] of the same compound?
Its GI50 is 1.76 µM.

What about the TGI [59] of the same compound?
Its TGI is 10.2 µM and 3.29 µM.
